Source: PMC10382584, “Macrocyclization of linear molecules by deep learning to facilitate macrocyclic drug candidates discovery” (Nature Communications, 2023)

Key:
Assay in all cases: biochemical
Parameters in all cases: DiscoveRx KINOMEscan competition binding, percent of DMSO control signal at 100 nM
Conditions in all cases: read-out: Fig. 4a / Percent Control / Compound 1; percent of DMSO control, competition binding
AAK1 = AAK1 (Homo sapiens, UniProt Q2M2I8)
BMPR1A = BMPR1A (Homo sapiens, UniProt P36894)
CDK4-cyclinD1 = target: T1, CDK4-cyclinD1 (Homo sapiens, UniProt P11802)
T1 construct: cyclinD1

HCK = HCK (Homo sapiens, UniProt P08631)
HCK, sequence (P08631 whole entry): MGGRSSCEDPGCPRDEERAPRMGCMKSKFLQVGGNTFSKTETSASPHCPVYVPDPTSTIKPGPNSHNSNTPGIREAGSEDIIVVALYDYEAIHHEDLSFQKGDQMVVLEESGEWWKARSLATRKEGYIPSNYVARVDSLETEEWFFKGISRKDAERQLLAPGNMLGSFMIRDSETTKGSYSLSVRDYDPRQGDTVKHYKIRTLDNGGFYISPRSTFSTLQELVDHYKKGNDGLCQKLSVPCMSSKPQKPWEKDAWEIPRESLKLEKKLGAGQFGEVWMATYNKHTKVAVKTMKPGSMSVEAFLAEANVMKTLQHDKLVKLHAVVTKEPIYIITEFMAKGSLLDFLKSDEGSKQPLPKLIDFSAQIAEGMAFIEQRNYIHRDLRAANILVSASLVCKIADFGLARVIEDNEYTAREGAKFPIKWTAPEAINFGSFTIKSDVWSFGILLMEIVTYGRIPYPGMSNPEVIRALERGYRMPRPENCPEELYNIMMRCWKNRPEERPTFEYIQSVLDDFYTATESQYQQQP

MAP4K2 = MAP4K2 (Homo sapiens, UniProt Q12851)
MAP4K5 = MAP4K5 (Homo sapiens, UniProt Q9Y4K4)
MERTK = MERTK (Homo sapiens, UniProt Q12866)
MERTK, sequence (Q12866 whole entry): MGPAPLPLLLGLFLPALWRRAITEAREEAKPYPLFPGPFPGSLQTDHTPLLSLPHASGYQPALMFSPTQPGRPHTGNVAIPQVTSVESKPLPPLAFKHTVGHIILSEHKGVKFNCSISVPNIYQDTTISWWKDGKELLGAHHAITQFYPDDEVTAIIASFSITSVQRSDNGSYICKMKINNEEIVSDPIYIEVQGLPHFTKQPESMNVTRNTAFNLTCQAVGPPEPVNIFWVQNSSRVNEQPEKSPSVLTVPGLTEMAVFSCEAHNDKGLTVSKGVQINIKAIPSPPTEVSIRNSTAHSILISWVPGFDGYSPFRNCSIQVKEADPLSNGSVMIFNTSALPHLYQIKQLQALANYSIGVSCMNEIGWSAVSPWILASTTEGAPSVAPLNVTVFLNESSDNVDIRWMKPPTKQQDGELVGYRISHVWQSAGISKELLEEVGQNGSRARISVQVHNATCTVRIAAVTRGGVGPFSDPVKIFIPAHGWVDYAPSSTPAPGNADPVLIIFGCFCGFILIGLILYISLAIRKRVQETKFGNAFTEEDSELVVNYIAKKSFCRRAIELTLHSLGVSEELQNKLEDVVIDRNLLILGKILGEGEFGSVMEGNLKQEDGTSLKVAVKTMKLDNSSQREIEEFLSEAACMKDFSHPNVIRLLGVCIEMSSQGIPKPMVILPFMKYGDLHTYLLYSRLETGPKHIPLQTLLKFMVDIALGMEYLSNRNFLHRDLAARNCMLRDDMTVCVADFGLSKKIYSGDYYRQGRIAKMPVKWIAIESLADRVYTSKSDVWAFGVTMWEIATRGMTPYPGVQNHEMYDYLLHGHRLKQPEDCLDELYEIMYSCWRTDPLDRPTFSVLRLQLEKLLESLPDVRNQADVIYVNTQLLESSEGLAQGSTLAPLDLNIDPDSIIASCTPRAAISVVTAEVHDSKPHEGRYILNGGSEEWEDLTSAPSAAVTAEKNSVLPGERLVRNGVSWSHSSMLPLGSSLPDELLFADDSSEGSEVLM

MYLK2 = MYLK2 (Homo sapiens, UniProt Q9H1R3)
MYO3B = MYO3B (Homo sapiens, UniProt Q8WXR4)
PDGFRA = PDGFRA (Homo sapiens, UniProt P16234)
PDGFRB = PDGFRB (Homo sapiens, UniProt P09619)
PIK3CA(H1047Y) = PIK3CA(H1047Y) (Homo sapiens, UniProt P42336, H1047Y)
PIP5K2B = target: T2, PIP5K2B (Homo sapiens, UniProt P78356)
T2 construct: gene PIP4K2B

PKAC-alpha = target: T3, PKAC-alpha (Homo sapiens, UniProt P17612)
T3 construct: gene PRKACA

PLK3 = PLK3 (Homo sapiens, UniProt Q9H4B4)
PRKCE = PRKCE (Homo sapiens, UniProt Q02156)
RET(V804M) = RET(V804M) (Homo sapiens, UniProt P07949, V804M)
SIK = target: T4, SIK (Homo sapiens, UniProt P57059)
T4 construct: gene SIK1
T4 sequence (P57059 whole entry): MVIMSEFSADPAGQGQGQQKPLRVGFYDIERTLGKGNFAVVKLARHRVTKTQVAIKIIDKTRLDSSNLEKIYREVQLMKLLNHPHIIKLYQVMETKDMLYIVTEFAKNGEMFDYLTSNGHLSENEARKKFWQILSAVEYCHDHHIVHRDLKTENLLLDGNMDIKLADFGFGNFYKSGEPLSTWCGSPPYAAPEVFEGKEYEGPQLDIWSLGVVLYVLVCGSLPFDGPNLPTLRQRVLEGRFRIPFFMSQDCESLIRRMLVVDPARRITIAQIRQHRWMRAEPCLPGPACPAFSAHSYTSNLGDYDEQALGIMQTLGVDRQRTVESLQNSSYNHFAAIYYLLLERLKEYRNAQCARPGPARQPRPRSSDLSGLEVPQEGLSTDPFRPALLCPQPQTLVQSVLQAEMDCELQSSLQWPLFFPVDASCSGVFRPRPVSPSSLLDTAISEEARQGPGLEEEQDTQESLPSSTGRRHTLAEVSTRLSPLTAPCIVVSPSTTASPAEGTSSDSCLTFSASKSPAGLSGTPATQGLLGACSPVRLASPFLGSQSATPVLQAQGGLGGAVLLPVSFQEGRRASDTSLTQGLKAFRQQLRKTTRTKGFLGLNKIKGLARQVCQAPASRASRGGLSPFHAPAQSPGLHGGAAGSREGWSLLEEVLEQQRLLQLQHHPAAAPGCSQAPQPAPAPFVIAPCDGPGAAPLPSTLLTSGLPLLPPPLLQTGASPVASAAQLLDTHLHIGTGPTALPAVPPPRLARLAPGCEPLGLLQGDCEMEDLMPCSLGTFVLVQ

STK16 = STK16 (Homo sapiens, UniProt O75716)
TEC = TEC (Homo sapiens, UniProt P42680)
TNNI3K = TNNI3K (Homo sapiens, UniProt Q59H18)
VEGFR2 = target: T5, VEGFR2 (Homo sapiens, UniProt P35968)
T5 construct: gene KDR

YSK1 = target: T6, YSK1 (Homo sapiens, UniProt O00506)
T6 construct: gene STK25
T6 sequence (O00506 whole entry): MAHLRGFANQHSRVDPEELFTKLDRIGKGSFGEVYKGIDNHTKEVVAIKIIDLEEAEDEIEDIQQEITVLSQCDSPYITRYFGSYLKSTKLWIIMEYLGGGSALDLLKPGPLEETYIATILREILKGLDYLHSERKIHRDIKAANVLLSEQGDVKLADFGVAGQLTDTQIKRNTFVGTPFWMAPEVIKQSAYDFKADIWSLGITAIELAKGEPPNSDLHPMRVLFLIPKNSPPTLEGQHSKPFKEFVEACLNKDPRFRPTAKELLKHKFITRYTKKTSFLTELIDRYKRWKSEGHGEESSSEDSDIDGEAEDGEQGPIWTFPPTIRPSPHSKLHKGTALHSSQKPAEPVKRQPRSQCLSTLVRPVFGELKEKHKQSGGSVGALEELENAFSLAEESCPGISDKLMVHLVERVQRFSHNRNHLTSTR

YSK4 = target: T7, YSK4 (Homo sapiens, UniProt Q56UN5)
T7 construct: gene MAP3K19
T7 sequence (Q56UN5 whole entry): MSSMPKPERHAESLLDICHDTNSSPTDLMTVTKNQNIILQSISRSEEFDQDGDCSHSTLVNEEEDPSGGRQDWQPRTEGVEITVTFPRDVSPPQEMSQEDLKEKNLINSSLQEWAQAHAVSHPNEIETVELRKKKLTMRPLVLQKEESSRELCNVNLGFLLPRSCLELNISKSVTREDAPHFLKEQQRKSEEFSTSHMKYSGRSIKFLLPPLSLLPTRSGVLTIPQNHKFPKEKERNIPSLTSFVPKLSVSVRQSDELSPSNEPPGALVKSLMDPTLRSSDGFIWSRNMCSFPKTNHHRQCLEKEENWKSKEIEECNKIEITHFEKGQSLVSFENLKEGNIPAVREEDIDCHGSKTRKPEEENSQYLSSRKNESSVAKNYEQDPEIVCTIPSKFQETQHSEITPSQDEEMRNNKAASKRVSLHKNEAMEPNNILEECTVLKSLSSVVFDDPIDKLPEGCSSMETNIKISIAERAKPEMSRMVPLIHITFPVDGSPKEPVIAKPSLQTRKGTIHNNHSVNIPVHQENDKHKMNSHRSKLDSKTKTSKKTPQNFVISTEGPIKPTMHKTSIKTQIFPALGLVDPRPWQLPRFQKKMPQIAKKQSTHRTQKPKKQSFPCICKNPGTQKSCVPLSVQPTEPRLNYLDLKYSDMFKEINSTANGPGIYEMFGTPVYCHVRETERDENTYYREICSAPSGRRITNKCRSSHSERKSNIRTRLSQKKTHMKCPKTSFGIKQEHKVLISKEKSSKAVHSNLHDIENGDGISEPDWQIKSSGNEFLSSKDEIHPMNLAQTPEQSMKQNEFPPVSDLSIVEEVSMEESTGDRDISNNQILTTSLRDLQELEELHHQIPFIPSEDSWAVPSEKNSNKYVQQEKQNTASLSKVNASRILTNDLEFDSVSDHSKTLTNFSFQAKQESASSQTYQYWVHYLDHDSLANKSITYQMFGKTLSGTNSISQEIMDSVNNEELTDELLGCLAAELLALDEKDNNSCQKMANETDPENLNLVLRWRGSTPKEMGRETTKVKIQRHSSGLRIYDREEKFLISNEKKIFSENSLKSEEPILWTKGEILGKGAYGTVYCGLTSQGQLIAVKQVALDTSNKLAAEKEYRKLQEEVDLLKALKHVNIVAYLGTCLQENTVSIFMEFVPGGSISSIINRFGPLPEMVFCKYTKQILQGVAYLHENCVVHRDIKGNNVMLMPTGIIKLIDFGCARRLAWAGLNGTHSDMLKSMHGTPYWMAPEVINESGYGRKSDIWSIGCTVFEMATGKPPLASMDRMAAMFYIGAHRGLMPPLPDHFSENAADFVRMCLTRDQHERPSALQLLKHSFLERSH

ZAK = target: T8, ZAK (Homo sapiens, UniProt Q9NYL2)
T8 construct: gene MAP3K20
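Note: KINOMEscan kinase panel binding assay, signal normalized between DMSO as 100% and a positive control compound as 0%.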

AAK1, sequence (Q2M2I8 whole entry): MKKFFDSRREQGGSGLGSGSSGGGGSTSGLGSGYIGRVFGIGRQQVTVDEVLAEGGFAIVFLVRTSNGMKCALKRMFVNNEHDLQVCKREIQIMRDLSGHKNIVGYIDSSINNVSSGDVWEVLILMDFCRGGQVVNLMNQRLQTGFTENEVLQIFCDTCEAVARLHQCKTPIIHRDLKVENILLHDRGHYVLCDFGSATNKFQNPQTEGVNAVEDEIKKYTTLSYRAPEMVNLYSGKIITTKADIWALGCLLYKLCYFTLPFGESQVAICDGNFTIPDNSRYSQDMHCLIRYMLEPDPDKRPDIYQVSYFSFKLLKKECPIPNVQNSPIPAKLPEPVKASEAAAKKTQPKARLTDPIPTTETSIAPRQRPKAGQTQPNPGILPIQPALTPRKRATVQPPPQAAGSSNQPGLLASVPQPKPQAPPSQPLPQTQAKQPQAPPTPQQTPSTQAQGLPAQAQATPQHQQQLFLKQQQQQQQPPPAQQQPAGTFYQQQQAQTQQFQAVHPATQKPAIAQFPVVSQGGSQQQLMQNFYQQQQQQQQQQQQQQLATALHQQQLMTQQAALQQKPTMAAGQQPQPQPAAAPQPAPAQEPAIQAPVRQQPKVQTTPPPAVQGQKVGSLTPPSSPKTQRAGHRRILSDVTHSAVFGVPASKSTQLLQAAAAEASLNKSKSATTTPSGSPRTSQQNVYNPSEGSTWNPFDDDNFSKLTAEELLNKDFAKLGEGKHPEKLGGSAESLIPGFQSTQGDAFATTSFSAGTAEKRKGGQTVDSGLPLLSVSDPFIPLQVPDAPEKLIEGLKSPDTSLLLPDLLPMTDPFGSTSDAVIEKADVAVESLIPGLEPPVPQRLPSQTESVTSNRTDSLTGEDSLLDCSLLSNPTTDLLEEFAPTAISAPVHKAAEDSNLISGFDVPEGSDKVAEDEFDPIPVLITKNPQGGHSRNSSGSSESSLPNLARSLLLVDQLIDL

## Cc1cnc2nc1Nc1cccc(c1)COCc1cc(ccc1OCCN1CCCC1)N2 [Compound 1]
AAK1
  remaining binding at 0.1 µM: 81%
BMPR1A
  remaining binding at 0.1 µM: 97%
CDK4-cyclinD1
  remaining binding at 0.1 µM: 76%
HCK
  remaining binding at 0.1 µM: 100%
MAP4K2
  remaining binding at 0.1 µM: 78%
MAP4K5
  remaining binding at 0.1 µM: 98%
MERTK
  remaining binding at 0.1 µM: 81%
MYLK2
  remaining binding at 0.1 µM: 100%
MYO3B
  remaining binding at 0.1 µM: 99%
PDGFRA
  remaining binding at 0.1 µM: 73%
PDGFRB
  remaining binding at 0.1 µM: 51%
PIK3CA(H1047Y)
  remaining binding at 0.1 µM: 91%
PIP5K2B
  remaining binding at 0.1 µM: 96%
PKAC-alpha
  remaining binding at 0.1 µM: 99%
PLK3
  remaining binding at 0.1 µM: 99%
PRKCE
  remaining binding at 0.1 µM: 98%
RET(V804M)
  remaining binding at 0.1 µM: 80%
SIK
  remaining binding at 0.1 µM: 100%
STK16
  remaining binding at 0.1 µM: 18%
TEC
  remaining binding at 0.1 µM: 94%
TNNI3K
  remaining binding at 0.1 µM: 100%
VEGFR2
  remaining binding at 0.1 µM: 63%
YSK1
  remaining binding at 0.1 µM: 91%
YSK4
  remaining binding at 0.1 µM: 11%
ZAK
  remaining binding at 0.1 µM: 100%
